Results published in patent US7855228B2, “Antibiotics targeting MreB” (The Board of Trustees of the Leland Stamford Junior …, priority 2005, dated 2010).
≈ marks a conversion by molar mass, not a printed value. Read-outs that look alike come from different tables or passages of the source.

Experiments:
HoIB-GFP = HoIB-GFP (replisome) localization; format: cell-based, Caulobacter crescentus; conditions: 1 hr treatment
Experimental: To assess the ability of these cells to assemble a replisome at the replication origins, A22 was administered to cells expressing a fusion of GFP to the HoIB subunit of DNA polymerase.

[1] = test system: Caulobacter DNA replication; assay: Analysis of DNA replication (32P-labeled dGTP incorporation, DNA-content FACS); format: cell-based, Caulobacter crescentus; conditions: 10 μg/ml A22 or 5 mg/ml HU
Source text: We first examined the incorporation of radiolabeled dGTP into DNA, which linearly correlates with the rate of DNA replication. […] To assess the effect of A22 on DNA replication during the cell cycle, the radiolabeled nucleotide incorporation assay was repeated using synchronized cultures at different points in the cell cycle. Untreated cells display a dramatic rise in radioactivity levels characteristic of DNA replication initiation at the swarmer-to-stalked cell transition. This rise in radioactivity levels was also observed in A22-treated cells (FIG. 6A).
Finally, we examined the DNA content of A22-treated cells by FACS.
Analysis of DNA Replication. DNA replication was assessed by incorporation of 32P-labeled dGTP) or chromomycin-stained DNA-content FACS analysis as described previously.

S. typhimurium NBRC13245 = assay: Determination of minimum inhibitory concentration (MIC); format: cell-based, Salmonella typhimurium; conditions: Salmonella enterica, Example 2; methods as in Example 1; read-out: MIC S. typhimurium
Experimental: (§1) Determination of minimum inhibitory concentration (MIC). MICs were also determined on Mueller Hinton agar plates (0.2% beef extract, 1.75% acid digest of casein, 0.15% soluble starch, 1.5% agar, pH 7.3).
(§2) Determination of MIC Minimal inhibitory concentrations (MICs) were determined using a standard 2-fold serial dilution format on L agar plates. Ten microliters of stationary culture diluted in 0.85% NaCl to 10^6 cells/ml were spotted on per plate. […] MICs were also determined on Mueller Hinton agar plates (0.2% beef extract, 1.75% acid digest of casein, 0.15% soluble starch, 1.5% agar, pH 7.3).

E. coli JA221, JST975 = assay: Cell shapes of A22-resistant mutant JA221 and parent JST975; format: cell-based; conditions: mecillinam treatment (1 μg/ml, 2 h, 37° C.)
Experimental: FIG. 9. Effects of A22 and mecillinam on cell shapes of the A22-resistant mutant JA221. Exponentially growing cells of the A22-resistant mutant strain JA221 and the parent strain JST975 were treated with 1 μg/ml mecillinam or 10 μg/ml A22 for 2 h at 37° C. Differential interference contrast microphotographs are shown.
After prolonged (9 days) incubation of the JST975 assay plates, several isolated colonies that grew up within the clear growth inhibitory zones were purified on L plates and their A22-sensitivity was examined.

E. coli MG1655 [2] = assay: Determination of minimum inhibitory concentration (MIC); format: cell-based; conditions: Escherichia coli, MG1655, Example 2; methods as in Example 1; read-out: MIC E. coli
Experimental: as §1, §2

P. putida NBRC14164 = assay: as above; format: cell-based, Pseudomonas putida; conditions: Pseudomonas putida, NBRC14164, Example 2; methods as in Example 1; read-out: MIC P. putida
Experimental: as §1, §2

E. coli MG1655 [3] = assay: Microscopic observation of cell shape; format: cell-based; conditions: Example 2; methods as in Example 1
Experimental: Microscopic observation. E. coli K-12 strain MG1655 (F^− λ^−) was grown in Lennox broth containing 1% Polypepton, 0.5% yeast extract, 0.5% NaCl, and 0.1% glucose (pH 7.2). Cells spread on a slide glass were treated with methanol for 5 min and covered with poly-L-lysine. The fixed cells were observed by the differential interference contrast system through an Axioskop 2 microscope (Carl Zeiss Co., Ltd., Oberkochen, Germany). To observe the anucleate cells, cells were stained with a 4′,6-diamidino-2-phenylindole (DAPI) solution (5 μg/ml in saline) and then observed by the fluorescence phase-contrast combined method.
The effect of each compound on E. coli cell morphology was next examined.

[4] = test system: S. aureus subsp. aureus NBRC15035; assay: Determination of minimum inhibitory concentration (MIC); format: cell-based, Staphylococcus aureus; conditions: Staphylococcus aureus, NBRC15035, Example 2; methods as in Example 1; read-out: MIC S. aureus
Experimental: as §1, §2

[5] = test system: E. coli K-12 strains (ponB, mreB alleles); assay: MICs of mecillinam and A22 for E. coli K-12 strains; format: cell-based; conditions: Escherichia coli
Experimental: as §2

B. subtilis 168 = assay: Determination of minimum inhibitory concentration (MIC); format: cell-based, Bacillus subtilis; conditions: Bacillus subtilis, 168, Example 2; methods as in Example 1; read-out: MIC B. subtilis
Experimental: as §1, §2

| SMILES | HoIB-GFP localization (HoIB-GFP) | Incorporation of radiolabeled dGTP, synchronized cultures (replication initiation) [1] | MIC (S. typhimurium NBRC13245) | Cell shape of resistant mutant JA221 (E. coli JA221, JST975) | MIC (E. coli MG1655 [2]) | MIC (P. putida NBRC14164) | Shape (E. coli MG1655 [3]) | MIC [4] | MIC ([5]; read-out: MICs, strain JA221 (ponB −, mreB221)) | MIC ([5]; read-out: MICs, strain JE1011 (ponB +, mreB +)) | MIC ([5]; read-out: MICs, strain JM109/pMW218 (ponB +, mreB +/−)) | MIC ([5]; read-out: MICs, strain JM109/pMreB1 (ponB +, mreB +/+)) | MIC ([5]; read-out: MICs, strain JM109/pMreB221 (ponB +, mreB +/mreB221)) | MIC ([5]; read-out: MICs, strain JST975 (ponB −, mreB +)) | MIC ([5]; read-out: MICs, strain JSTA220 (ponB −, mreB +)) | MIC ([5]; read-out: MICs, strain JSTA221 (ponB −, mreB221)) | MIC ([5]; read-out: MICs, strain WA220 (ponB +, mreB +)) | MIC ([5]; read-out: MICs, strain WA221 (ponB +, mreB221)) | MIC (B. subtilis 168) |
| --- | --- | --- | --- | --- | --- | --- | --- | --- | --- | --- | --- | --- | --- | --- | --- | --- | --- | --- | --- |
| NC(=O)NO [HU, hydroxyl-urea, reference compound] | rapid delocalization of HoIB-GFP | no such increase in radioactivity levels | – | – | – | – | – | – | – | – | – | – | – | – | – | – | – | – | – |
| CC1(C)S[C@@H]2[C@H](/N=C/N3CCCCCC3)C(=O)N2[C@H]1C(=O)O [mecillinam, reference compound] | – | – | 0.0977 µg/mL (≈ 0.3 µM) | formed spherical cells | 0.0977 µg/mL (≈ 0.3 µM) | > 100 µg/mL | Sphere | 50 µg/mL (≈ 154 µM) | 0.125 µg/mL (≈ 0.384 µM) | 0.25 µg/mL (≈ 0.768 µM) | 0.125 µg/mL (≈ 0.384 µM) | 0.125 µg/mL (≈ 0.384 µM) | 0.125 µg/mL (≈ 0.384 µM) | 0.125 µg/mL (≈ 0.384 µM) | 0.125 µg/mL (≈ 0.384 µM) | 0.125 µg/mL (≈ 0.384 µM) | 0.25 µg/mL (≈ 0.768 µM) | 0.25 µg/mL (≈ 0.768 µM) | 12.5 µg/mL (≈ 38.4 µM) |
